Assay results taken from patent US7611863B2, “Selective staining of biomembranes using voltage-sensitive dyes” (Max-Planck-Gesellschaft zur Foerderung der Wissenschaften …, priority 2004, dated 2009).

How the values were obtained:
[1] = Enzyme induced staining of liposomes; assay type: biochemical; conditions: 100 μM lipid; 0.43 μM and 4.31 μM substrate
Method: Enzyme induced staining of liposomes. We studied enzymatic hydrolysis of Di-4-ASPP phosphate in the presence of large unilamellar POPC vesicles (LUVs) to observe enzyme induced staining. Tris-NaCl Buffer was used for the preparation of all solutions. To 550 μl of a 200 μM solution of POPC vesicles in a cuvette, an equal volume of Di-4-ASPP phosphate was added to yield concentrations between 0.1 μM and 10.7 μM. 10 μl of PLAP (18.6 DEA Units/ml) were added and the suspension was mixed by pipetting. The cuvette was held at 25° C. Fluorescence (excitation 488 nm, emission 600 nm) was recorded before and after addition of the enzyme with a resolution of 1 sec. Initial velocities were determined from the slope of the first 10 to 20 seconds of the fluorescence traces.
Enzyme Induced staining of liposomes. Now, we combined the two previous experiments. The dye phosphate was hydrolysed by phosphatase in the presence of lipid vesicles. The reaction was observed by the enhancement of fluorescence due to the enhanced binding of the dye alcohol to the lipid. The fluorescence intensity of a vesicle suspension (100 μM lipid) was recorded before and after the addition of the phosphatase with 0.43 μM and 4.31 μM Di-4-ASPP phosphate. […] This corresponds to the ratio of the fluorescence lipid titration data of alcohol and phosphate at 100 μM lipid.

[2] = tested on: human erythrocytes; experiment: Enzyme induced staining of red blood cells; assay type: cell-based; conditions: 9.8 μM, PLAP added
Method: Enzyme induced staining of red blood cells. Human erythrocytes were prepared according to a slightly modified standard procedure^29. 4 ml of blood of MJH were sucked into a tube coated with EDTA (Vacutainer 367,861, Becton Dickinson, Meylan, France) and centrifuged for 10 min at 1600 g. The pellet (˜1 ml) was washed three times by resuspension and centrifugation for 10 min at 1600 g using 15 ml of a 300 mOsm Tris buffer (50 mM Tris, 110 mM NaCl, pH 7.4). Finally, the pellet was diluted with an equal volume of the same buffer additionally containing 1 mM CaCl2.
The staining experiments with erythrocytes were similar to those with giant vesicles. […]
Di-4-ASPP phosphate was added to human erythrocytes attached to a culture dish to a concentration of 9.8 μM. Membrane fluorescence was measured in the same setup as with giant vesicles. Fluorescence was weaker than with giant vesicles, which we attribute to fluorescence quenching by hemoglobin and the smaller size of the erythrocytes. […]
Plots of the intensity of a row of pixels cutting through the image of an erythrocyte at its maximum diameter are shown in B. The normalized maximum brightness minus the background signal versus time is shown in C. The ratio of final and initial fluorescence was F∞/F0=11-25 with an average of 15. These values are similar to the fluorescence enhancement on giant vesicles. […]

[3] = tested on: phosphatase expressing cells; experiment: Destaining of cells after enzyme induced staining; assay type: cell-based
Method: FIG. 18. Destaining. Cells were incubated with Di-12P-ASPBS for 30 seconds, then the medium containing the dye precursor was removed and the cells were washed twice in buffer containing no dye. Fluorescence images were recorded with excitation filter 450/50 nm, emission filter 510 nm, dichroic mirror 505 nm. A. Brightfield image of cells and fluorescence images of cells illustrating destaining of the cell membrane by diffusion of the dye into the bulk medium. B. Time course of destaining. The maximum fluorescence intensity of the membrane is plotted vs. time.
Destaining. […] Cells were incubated with Di-12P-ASPBS for 30 seconds, then the medium containing the dye precursor was removed and the cells were washed twice in buffer containing no dye.

[4] = tested on: Madine Darby Canine Kidney (MDCK) cells; experiment: Enzyme induced staining of transiently transfected MDCK cells; assay type: cell-based; conditions: 200 nM
Method: FIG. 19. Genetically Targeted Staining of MDCK cells with Di-10P-ASPBS and Di-12P-ASPBS. (A) Cells were cotransfected with the membrane-bound phosphatase construct termed ArtPlasMA AP and H2B-GFP, a nucleus-localized transfection marker. Brightfield image and fluorescence images before (−1 sec) and after addition of 200 nM Di-10P-ASPBS. (B) Analogous to row A, but using 200 nM Di-12P-ASPBS. (C) Control experiment. Cells were transfected only with H2B-GFP and incubated with 200 nM Di-12P-ASPBS. Brightfield image and fluorescence images before (−1 sec) and after addition of dye (8 min). (D) Control experiment. Cells were cotransfected with the membrane-bound phosphatase construct termed ArtPlasMA AP and H2B-GFP and incubated with the dye Di-10A-ASPBS. Brightfield image and fluorescence image before (−1 sec) and after addition of dye (20 sec).
Two control experiments were performed: In the first control, cells were transfected only with the transfection marker H2B-GFP. […] In addition, no difference in staining intensity between transfected and untransfected cells can be discerned (FIG. 19C). In the second control experiment, cells were cotransfected with the phosphatase construct and the transfection marker.

enhancement of fluorescence intensity of vesicle suspension after addition of phosphatase [1] | Compound | ratio of final and initial fluorescence F∞/F0, average [2] | ratio of final and initial fluorescence F∞/F0, range [2] | membrane leaflet to which the dye binds [3] | fluorescence of stained membranes over time after washing ([3]; diffusion of bound dye to bulk medium) | selectivity of staining after 30 seconds incubation and washing ([3]; medium removed, washed twice) | staining of directly adjacent cells ([4]; after 10 minutes incubation) | localization of staining over several minutes ([4]; cells cotransfected with ArtPlasMA AP and H2B-GFP) | staining of control cells without phosphatase ([4]; transfected only with H2B-GFP)
about sixfold | CCCCN(CCCC)c1ccc(/C=C/c2cc[n+](CCCOP(=O)([O-])O)cc2)cc1 [Di-4-ASPP phosphate] | 15 | 11-25 |  |  |  |  |  | 
 | Di-12-phosphato-ASPBS [Di-12P-ASPBS] |  |  | binds almost exclusively to the extracellular leaflet | the fluorescence intensity of the stained membranes declined | selective staining of phosphatase expressing cells could be observed | Directly adjacent cells are weakly stained | Staining is well localized even after 10 minutes incubation | only weakly stained
